In data set [1] the test system is type I Collagen in human skin fibroblasts (WS1). Briefly: Stimulation of collagen type I in skin fibroblasts (immunofluorescence). It is filed as cell-based. The settings on record: positive control at 10 ng/mL. The method, then: The effect of the extract on collagen stimulation was evaluated using specific antibodies to type I Collagen. Once bound to collagen, the primary antibody is detected by a secondary antibody on which a fluorophore is grafted. Human skin fibroblasts (WS1, ATCC CRL-1502) were seeded in 96-well microplates in a full decomplemented culture medium and incubated overnight at 37° C. and 5% CO2 to allow their adherence. Thereafter, the cells were incubated for 24 hours in the absence or presence of increasing concentrations of Red maple bark extract (12.5, 25, 50 and 100 μg/mL). The culture medium containing the extract was then removed and the cells were fixed with 95% ethanol for 10 minutes. The cells were washed three times with PBS and permeabilized with 0.5% Triton solution in PBS for 15 minutes. […] The fluorescence emitted by the secondary antibody was then measured and pictures were taken with a fluorescence microscope Cytation3.
The effect of the extract on collagen stimulation was evaluated using specific antibodies to type I Collagen. Once bound to collagen, the primary antibody is detected by a secondary antibody on which a fluorophore is grafted. […] The fluorescence emitted by the secondary antibody was then measured and pictures were taken with a fluorescence microscope Cytation3.

A short description of data set [2]: UV protection in vitro by spectrophotometer (SPF calculation). The settings on record: 20 μg/ml in ethanol; absorbance 290-320 nm. It is filed as physicochemical.

Take TGF-β: the “average increase of collagen (fluorescence) compared to untreated cells” value in data set [1] turned out to be 56%.
For `CC1CC(OC(=O)c2ccccc2O)CC(C)(C)C1` (centres unmarked) [Homosalate], the SPF in data set [2] is reported as 3.9 ± 0.2.

The values above are taken from US10722451B2, “Tree bark extract as anti-aging composition and uses thereof” (LES LABORATOIRES BIOFOREXTRA, priority 2017, dated 2020).
